One block for each molecule: values may come before it.
How the values were obtained:
[1] = target: T1, NE (Homo sapiens, UniProt P08246); assay: Surface plasmon resonance competition assay, NE binding to HS-SA sensor chip; conditions: for competitive effectiveness (inhibition of NE binding to immobilized HS): NE at 1,000 nM, competing glycosaminoglycans at 1,000 ng/ml; for competition for NE binding to immobilized HS (in words): solution-surface competition, SPR
T1 sequence (P08246 30-267): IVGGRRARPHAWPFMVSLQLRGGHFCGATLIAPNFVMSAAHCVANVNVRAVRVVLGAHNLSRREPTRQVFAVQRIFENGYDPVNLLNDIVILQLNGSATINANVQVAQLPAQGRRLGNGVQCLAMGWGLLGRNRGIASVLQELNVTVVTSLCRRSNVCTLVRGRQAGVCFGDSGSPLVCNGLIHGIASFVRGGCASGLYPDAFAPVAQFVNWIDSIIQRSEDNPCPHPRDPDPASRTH
Procedure: (§1) Interactions of HS and NE were analyzed with a BIAcore 2,000 optical biosensor (BIAcore, Uppsala, Sweden). HS chains recovered from rhSyn-1 after LiOH treatment were biotinylated at the reducing ends (68 nmol biotin/mg HS, as determined by Quant*Tag Biotin kit; Vector Laboratories, Peterborough, UK). By a 2-minute injection of biotinylated HS, […] in 10 mM Hepes (pH 7.4), 0.15 M NaCl, and 0.005% P20 surfactant (HBS-P; BIAcore), at a flow rate of […] onto the streptavidin (SA) sensor chip (BIAcore), increase in 250 resonance units indicated successful immobilization of HS onto the sensor chip. Increasing concentrations of NE in HBS-P buffer were perfused (at […] for 2 min) in turn over the HS-SA sensor chip, each followed by perfusion of buffer to facilitate dissociation. Responses were monitored at 25° C. The sensor chip was regenerated with perfusion of 2 M NaCl/HBS-P. Resonance data obtained from sensorgrams were evaluated with BIAevaluation 3.0 software (BIAcore) to yield rate constants for association (ka), dissociation (kd) and the equilibrium dissociation constant (Kd). For competition assays, NE (2,000 nM) premixed at 1:1 (vol/vol) with defined concentrations (250-2,000 ng/ml) of the competing glycosaminglycan-chondroitin 4-sulfate (C4S), heparin, and chemically modified heparins (N-desulfated re-N-acetylated, completely desulfated re-N-acetylated, or 2-O and 6-O desulfated and N-sulfated; Seikagaku) in HBS-P buffer for 30 minutes at 4° C. was injected onto the HS-SA sensor chip at […]. Dissociation and regeneration procedures were as described above. […] All experiments were preformed in duplicate. Resonance data obtained from sensorgrams were plotted as percent inhibition relative to that obtained without competing glycosaminoglycan. The concentration of competing glycosaminoglycan that interfered with NE binding to the HS-SA sensor by 50% was determined using the statistical program, PRISM (GraphPad, Inc., San Diego, Calif.).

[2] = target: T1, NE; assay: Surface plasmon resonance analysis of NE-HS binding
Procedure: as §1

[3] = target: T2, rhSyn-1 (Homo sapiens, UniProt P18827); assay: Western ligand blot of rhSyn-1; assay type: binding
T2 construct: made in house
T2 sequence (P18827 23-310): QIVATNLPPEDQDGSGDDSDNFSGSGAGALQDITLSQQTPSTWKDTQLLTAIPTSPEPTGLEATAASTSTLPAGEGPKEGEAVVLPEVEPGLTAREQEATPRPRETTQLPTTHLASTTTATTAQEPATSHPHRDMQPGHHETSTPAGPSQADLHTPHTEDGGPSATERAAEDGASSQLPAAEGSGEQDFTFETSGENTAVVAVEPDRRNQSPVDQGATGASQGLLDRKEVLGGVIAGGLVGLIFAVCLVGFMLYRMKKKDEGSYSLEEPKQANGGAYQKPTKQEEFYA
Procedure: Sputum sol was treated (30 min, 24° C.) with the mucolytic reducing agent, DTT (5 mM; Sigma) to deactivate NE, dialyzed against PBS (16 h, 4° C.) to remove DTT, and then incubated (16 h, 37° C.) with HS^ase I and II (0.01 unit each; Seikagaku, Tokyo, Japan) or chondroitinase ABC (0.01 unit; Seikagaku). Control treatments were performed in the relevant incubation buffer (product sheet; Seikagaku), but without the indicated enzymes. The digestion products were subjected to Western blot and Western ligand blot analyses. Recombinant Syn-1 was similarly treated, deglycanated, and analyzed, but without prior treatment with DTT.
Sputum sol samples were treated with DTT, as described above, and then subjected to SDS-PAGE in a 10% gel under nonreducing conditions. The gel electrophoretogram was electroblotted onto polyvinylidene fluoride membrane and nonspecific binding was blocked with 5% nonfat dry milk (1 h, 24° C.) before the blot was probed for the epitope of interest. […] Secondary antibodies were conjugated with horseradish peroxidase. The membranes were washed with PBS-Tween® 20 between incubations. Visualization was enhanced with an enhanced chemiluminescence kit (Amersham Biosciences, Piscataway, N.J.). […]

[4] = target: T1, NE; assay: Inhibition of NE activity in the presence of rhSyn-1 or sputum sol; assay type: biochemical; conditions: incubations with rhSyn-1 and with sputum samples, with and without prior HS^ase I and II treatment
Procedure: Unopposed NE activity in sputum sol was assessed for equivalent molar concentration by active-site titration. The NE activity of sputum sol was estimated using MeO-Suc-Ala-Ala-Pro-Val-p-nitroanilide as substrate at 2 mM in 0.2 M Tris-HCl, 0.5 M NaCl (pH 8.0); the hydrolytic release of p-nitroaniline was followed at 410 nm, 37° C. (molar extinction coefficient at 410 nm=8,800). An equivalent activity of purified human NE (Sigma, St. Louis, Mo.) was titrated with increasing concentrations of the irreversible inhibitor, MeO-Suc-Ala-Ala-Pro-Val-CMK (Calbiochem, La Jolla, Calif.), and the residual activities were measured.
The inhibitor effects were compared with those of parallel procedure performed on DTT-pretreated sputum sol samples of the 12 patient recruits.

[5] = NE over immobilized HS, 1:1 Langmuir model

competitive effectiveness (inhibition of NE binding to immobilized HS) [1]: 95%
competition for NE binding to immobilized HS (in words) [1]: Effective competition
Molecule: heparin

competitive effectiveness (inhibition of NE binding to immobilized HS) [1]: approximately 60%
Molecule: 2-0 and 6-0 desulfated and N-sulfated heparin

competition for NE binding to immobilized HS (in words) [1]: failed to outcompete
competition for NE binding to immobilized HS (in words) ([1]; listed as CS): not
Molecule: chondroitin 4-sulfate [C4S]

Kd ([2]; NE (50-1,500 nM) perfused over immobilized HS from rhSyn-1, 1:1 Langmuir model, 25° C., read-out: equilibrium dissociation constant (Kd)): 14.2 nM
ka, rate constant for association [2, 5]: 3.31 ± 0.14 × 10^4 M^−1s^−1
kd, rate constant for dissociation [2, 5]: 4.69 ± 0.21 × 10^−4 s^−1
Molecule: heparan sulfate [HS]

competitive effectiveness (inhibition of NE binding to immobilized HS) [1]: approximately 75%
Molecule: N-desulfated and re-N-acetylated heparin

binding to glycanated rhSyn-1 [3]: not
binding to deglycanated rhSyn-1 core protein ([3]; after heparitinase and chondroitinase treatments): binding
Molecule: alpha-1-antitrypsin [α1-AT]

competition for NE binding to immobilized HS (in words) [1]: failed to outcompete
Molecule: Completely desulfated and re-N-acetylated heparin

inhibition of NE activity (in words) [4]: complete inhibition
B1: eglin C (peptide, UniProt P01051 1-70, looked up)
Eglin C: TEFGSELKSFPEVVGKTVDQAREYFTLHYPQYDVYFLPEGSPVTLDLRYNRVRVFYNPGTNVVNHVPHVG

Source: US20110212181A1, “COMPOSITIONS AND METHODS FOR TREATING CHRONIC RESPIRATORY INFLAMMATION” (The University of Hong Kong, priority 2010, published 2011)
